Experimental data published in patent US20240400722A1, “Chemically Inducible Heterodimerizing System and A Method For Generation Thereof” (Miltenyi Biotec B.V. & Co. KG, priority 2023, published 2024).
“Also recorded” adds a separate entry of the source.

How the values were obtained:
[1] = tested on: Raji target cells; experiment: IFN-γ and IL-2 secretion (ELISA) of transduced split CAR T cells co-cultured with Raji target cells; format: cell-based, human; details: medium, 0.1 μM or 100 μM caffeine, overnight, E:T 2:1
Description: The nucleotide sequence encoding the monomeric CAR chain 1 (SEQ ID NO:34) containing dfM1-1 was fused to the nucleotide sequence encoding the dimeric CAR chain 2 (SEQ ID NO:36) or to the nucleotide sequence encoding monomeric CAR chain 2 (SEQ ID NO:37) via a furin cleavage site and 2A sequence (SEQ ID NO:41) and cloned into a third generation lentiviral expression vector with puromycin resistence gene (pCDH, System Biosciences). This plasmid, along with second-generation viral packaging plasmids (psPAX2 and pMD2.G, Addgene plasmids #12260 and #12259), was co-transfected in Lenti-X 293T cells (Takara) using the PureFection Transfection Reagent (System Biosciences) according to instructions provided by the manufacturer. Supernatants were collected on day 2 and 3 following transfection and concentrated 100-fold using Lenti-X Concentrator (Takara) according to the manufacturer's instructions. Viral suspensions were resuspended in RPMI-1640 medium supplemented with 10% FCS and 1% penicillin-streptomycin and frozen at −80° C. […]
Supernatants of triplicate wells were pooled and stored at −80° C. IFN-γ and IL-2 secretion was quantified by ELISA using kits from Biolegend (ELISA MAX Deluxe Set Human IFN-γ and ELISA MAX Deluxe Set Human IL-2, respectively), according to the manufacturer's instructions.

[2] = tested on: acVHH-V104D/acVHH-M1; details: Jurkat T cells; compared with homodimeric switch acVHH-WT
Description: (§1) The ac VHH variants were N-terminally fused to an extracellular globular domain used to assess expression, as well as a transmembrane domain, and C-terminally fused to a subunit of the split NanoLuc (NanoBiT® system), Promega. Thus, the resulting fusion protein consisted of an extracellular globular domain, followed by a transmembrane domain and intracellular ac VHH variants followed by a subunit of split NanoLuc luciferase.
(§2) The different chains built were as follows: the first polypeptide chain comprised truncated EGFR extracellular and transmembrane domain, followed by a 2×G4S linker and cither ac VHH-V104D or ac VHH-WT, followed by a linker (SEQ ID NO:31) and 11S NanoBiT® “Large BiT”, whereas the second polypeptide chain comprised truncated HER2 extracellular and transmembrane domain, followed by a linker (SEQ ID NO:32) and either ac VHH-V104D or ac VHH-WT or ac VHH-M1 or acVHH-M2 or dfM1-1 or dfM1-2, followed by a linker (SEQ ID NO:33) and 114 NanoBiT® “Small BiT”. […] The principle of the assay is as follows: upon binding of (i.e. dimerization) of the respective ac VHH variants, the fused NanoLuc luciferase subunits are brought into close proximity (the two subunits being fused to the two different polypeptide chains, respectively), thus resulting in a functional luciferase enzyme, whose activity can be measured. […]

[3] = tested on: acVHH-V104D/dfM1-1; experiment: NanoBiT assay in Jurkat T cells, small molecule titration of acVHH-V104D/dfM1-1; format: cell-based, llama
Description: as §1, §2

[4] = tested on: acVHH-V104D/dfM1-2; experiment: NanoBiT assay in Jurkat T cells, small molecule titration of acVHH-V104D/dfM1-2; format: cell-based, llama
Description: as §1, §2

[5] = tested on: CD19-positive Jurkat target cells; experiment: Lysis of target cells by split CAR-expressing primary human T cells with or without dimerizer; format: cell-based; details: 50 μM caffeine or medium only, E:T 2:1, 4 h; split CARs with dfM1-1 or dfM1-2 and acVHH V104D
Description: 4 different architectures of split CARs consisting of two chains were investigated per acVHH variant where both the first and second chain of the split CAR is either monomeric or dimeric. A dimeric first CAR chain entails an FMC63 scFv followed by a linker followed by a Flag tag followed by a CD8a hinge and transmembrane domain followed by a 4-1BB co-stimulatory domain followed by a linker followed by acVHH dfM1-1 or dfM1-2 (SEQ ID NO:34 where ac VHH is dfM1-1). The only difference for a monomeric first CAR chain is the mutation of the two cysteine residues in the CD8a hinge to serine residues (SEQ ID NO:35). A dimeric second chain entails a DAP10 extracellular domain followed by a CD8 transmembrane domain followed by 2 amino acids followed by a 4-1BB co-stimulatory domain followed by a linker followed by ac VHH V104D followed by a linker followed by CD3z signaling domain followed by a linker followed by m Cherry (SEQ ID NO:36). […]
After electroporation, the cells were incubated for 6 h at 37° C. […] The cells were co-cultured for 4 h at 37° C., then 150 μg/mL luciferin (Xenolight D-luciferin, Perkin Elmer) was added to each well and luminescence was measured after 20 min with an ENSPIRE Multimode plate reader (Perkin Elmer). Specific lysis was calculated according to the formula:

[6] = cited from earlier work
[7] = target: acVHH-V104D; details: read-out: binding affinity (KD) of caffeine to acVHH-V104D; SPR multi-cycle kinetics, steady state analysis; acVHH-V104D immobilised on CM5 chip
Method: A stock of 30 μg/mL protein ac VHH-V104D was prepared in 10 mM NaAc buffer of pH 5 and covalently immobilised on a CM5 chip (GE Healthcare) with a 300 sec contact time and 10 μL/min flow rate to reach 4 600 response units (RU). […] KD values were obtained by steady state analysis.

[8] = tested on: acVHH-V104D+acVHH-M1; experiment: Yeast display, small molecule-triggered heterodimerization acVHH-V104D + acVHH-M1; format: binding, llama; details: 500 nM soluble acVHH-V104D ± 10 μM compound
Method: (§3) Expression of the acVHH variants on yeast was induced by culturing the cells in SG-CAA medium (20 g/L galactose, 2 g/L glucose, 6.7 g/L yeast nitrogen base, 5 g/L bacto casamino acids, 10.2 g/L Na2HPO4*7 H2O, 8.56 g/L NaH2PO4*H2O) overnight at 20° C. and 180 rpm. Detection of full-length proteins on the surface of the cells was carried out by staining the cells with anti-c-myc AlexaFluor 488 (9E10, Thermo Fisher). […] After a washing step with PBSA, they were stained with an anti-HA-Alexa Fluor 488 (BioLegend) to gate for displaying yeast cells and the geometric mean fluorescence intensity (gMFI) of binding to acVHH-V104D, detected by co-staining with a Penta-His-Alexa Fluor 647 (Qiagen) (recognizing the His-tag on acVHH-V104D) was measured.
(§4) 56 clones of the library were sequenced as explained in Example 2. […] Their binding and affinity to soluble acVHH-V104D as well as full length display was assessed with yeast surface display as described in Example 2.
(§5) EC50 values were calculated like the KD values by fitting the gMFI binding values to a 1:1 binding interaction model (Zajc et al., Methods Mol Biology. 2022; 2491:155-173).

[9] = tested on: acVHH-V104D+acVHH-M2; format: binding, llama; details: 500 nM soluble acVHH-V104D ± 10 μM compound
Method: as §3

[10] = tested on: V104D+dfM1-2; details: 500 nM soluble acVHH-V104D ± 10 μM compound
Method: as §3, §4, §5

[11] = tested on: V104D+dfM1-1; details: 500 nM soluble acVHH-V104D ± 10 μM compound
Method: as §3, §4, §5

[12] = compared with homodimeric switch acVHH-WT
[13] = increasing concentrations of theobromine

Cn1c(=O)c2c(ncn2C)n(C)c1=O [caffeine]
IFN-γ and IL-2 secretion of split CAR T cells [1]: strong dependence
EC50 for caffeine, V104D+M1, NanoBiT [2]: increased
EC50 for caffeine, V104D+dfM1-1, NanoBiT [3, 12]: increased
EC50 for caffeine, V104D+dfM1-2, NanoBiT [4, 12]: increased
lysis of CD19-positive Jurkat T cells by split CAR T cells [5]: caffeine-dependent cytotoxic activity
plasma levels of caffeine ([6]; absence of coffee, tea and chocolate consumption for 21 days, detection limit of the method): < 500 nM
maximum plasma caffeine levels ([6]; after drinking one cup of coffee): ~10 µM
caffeine plasma levels ([6]; nonhabitual coffee drinkers after coffee abstinence for at least 16 hours): 1.9 ± 1.6 µmol/L
Kd [7]: 72.4 mM

Cn1c(=O)[nH]c2ncn(C)c2c1=O [paraxanthine]
triggering of heterodimerization acVHH-V104D/acVHH-M1 [8]: can trigger
triggering of heterodimerization acVHH-V104D/acVHH-M2 [9]: can trigger

Cn1cnc2c1c(=O)[nH]c(=O)n2C [theobromine]
triggering of heterodimerization acVHH-V104D/acVHH-M1 [8]: can trigger
triggering of heterodimeric switch acVHH-V104D/dfM1-1 [3, 13]: can trigger
triggering of heterodimeric switch acVHH-V104D/dfM1-2 [4, 13]: can trigger
triggering of heterodimerization acVHH-V104D/acVHH-M2 [9]: can trigger

Cn1c(=O)c2[nH]cnc2n(C)c1=O [theophylline]
triggering of heterodimerization acVHH-V104D/acVHH-M1 [8]: can trigger; also recorded: can be triggered
triggering of heterodimerization acVHH-V104D/dfM1-2 [10]: can be triggered
triggering of heterodimerization acVHH-V104D/dfM1-1 [11]: can be triggered
triggering of heterodimerization acVHH-V104D/acVHH-M2 [9]: can trigger
